# Assay results from US8471005B2 (Cephalon, Inc., priority 2008, dated 2013).
# Read-outs that look alike come from different tables or passages of the source.
# How the values were obtained:
# ALK = target: T1, ALK (Homo sapiens, UniProt Q9UM73); assay: ALK Kinase Assay (ELISA/TRF, PLC-γ substrate); assay type: biochemical; conditions: read-out: ALK Potency
# T1 construct: host or cells: baculovirus expression system
# Outline: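 Read-out is time-resolved fluorescence from a Eu-N1-labeled PT66 antibody that binds phosphorylated PLC-γ, the substrate coated at 10 μg/mL in TBS. ALK at 30 ng/ml starts the reaction, which runs 15 minutes at 37° C.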
# JAK2 = target: T2, JAK2 (Homo sapiens, UniProt O60674); assay: Recombinant Human JAK2 Kinase Assay (TRF); assay type: biochemical; conditions: read-out: JAK2 Potency
# T2 construct: host or cells: baculovirus expression system
# T2 sequence (O60674 whole entry): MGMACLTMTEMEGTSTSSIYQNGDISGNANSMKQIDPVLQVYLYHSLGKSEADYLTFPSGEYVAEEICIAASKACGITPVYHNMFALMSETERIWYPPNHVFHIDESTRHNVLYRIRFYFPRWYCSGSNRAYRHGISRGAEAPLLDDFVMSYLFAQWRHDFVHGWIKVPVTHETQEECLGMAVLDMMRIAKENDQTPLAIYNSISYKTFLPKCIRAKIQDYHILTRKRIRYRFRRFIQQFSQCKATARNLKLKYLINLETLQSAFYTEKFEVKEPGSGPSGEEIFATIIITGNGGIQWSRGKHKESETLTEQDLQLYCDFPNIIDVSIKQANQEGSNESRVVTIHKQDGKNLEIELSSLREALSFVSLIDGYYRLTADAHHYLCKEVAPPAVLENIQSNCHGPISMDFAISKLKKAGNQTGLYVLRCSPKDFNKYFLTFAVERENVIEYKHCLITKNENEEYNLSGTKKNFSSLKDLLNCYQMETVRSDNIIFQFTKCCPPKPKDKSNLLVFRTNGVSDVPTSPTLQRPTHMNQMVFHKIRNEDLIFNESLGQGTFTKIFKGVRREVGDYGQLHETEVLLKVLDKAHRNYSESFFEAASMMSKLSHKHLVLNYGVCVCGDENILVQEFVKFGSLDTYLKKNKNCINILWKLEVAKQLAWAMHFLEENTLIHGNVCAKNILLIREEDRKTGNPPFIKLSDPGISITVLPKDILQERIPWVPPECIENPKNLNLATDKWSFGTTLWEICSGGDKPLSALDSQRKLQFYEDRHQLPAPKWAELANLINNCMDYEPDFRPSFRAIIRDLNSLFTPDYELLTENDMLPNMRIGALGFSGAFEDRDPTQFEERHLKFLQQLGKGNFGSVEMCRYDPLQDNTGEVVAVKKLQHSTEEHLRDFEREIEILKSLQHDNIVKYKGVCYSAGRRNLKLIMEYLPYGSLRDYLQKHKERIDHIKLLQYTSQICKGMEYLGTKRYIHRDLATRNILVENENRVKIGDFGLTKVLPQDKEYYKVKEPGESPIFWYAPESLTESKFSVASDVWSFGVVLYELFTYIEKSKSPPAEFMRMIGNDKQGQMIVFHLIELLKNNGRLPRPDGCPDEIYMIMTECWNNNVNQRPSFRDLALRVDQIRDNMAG
# Outline: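 Kinase activity of baculovirus-expressed JAK2 is followed on a surface-immobilised biotinylated peptide, with the reaction run for 20 min at room temperature in buffer containing 0.2 μM ATP and manganese. Phosphorylation is read with Eu-N1 PY100 antibody.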
# [1] = ALK kinase inhibition, 1 μM ATP
# [2] = JAK2 kinase inhibition, 0.2 μM ATP
# T1 sequence (Q9UM73 19-1620): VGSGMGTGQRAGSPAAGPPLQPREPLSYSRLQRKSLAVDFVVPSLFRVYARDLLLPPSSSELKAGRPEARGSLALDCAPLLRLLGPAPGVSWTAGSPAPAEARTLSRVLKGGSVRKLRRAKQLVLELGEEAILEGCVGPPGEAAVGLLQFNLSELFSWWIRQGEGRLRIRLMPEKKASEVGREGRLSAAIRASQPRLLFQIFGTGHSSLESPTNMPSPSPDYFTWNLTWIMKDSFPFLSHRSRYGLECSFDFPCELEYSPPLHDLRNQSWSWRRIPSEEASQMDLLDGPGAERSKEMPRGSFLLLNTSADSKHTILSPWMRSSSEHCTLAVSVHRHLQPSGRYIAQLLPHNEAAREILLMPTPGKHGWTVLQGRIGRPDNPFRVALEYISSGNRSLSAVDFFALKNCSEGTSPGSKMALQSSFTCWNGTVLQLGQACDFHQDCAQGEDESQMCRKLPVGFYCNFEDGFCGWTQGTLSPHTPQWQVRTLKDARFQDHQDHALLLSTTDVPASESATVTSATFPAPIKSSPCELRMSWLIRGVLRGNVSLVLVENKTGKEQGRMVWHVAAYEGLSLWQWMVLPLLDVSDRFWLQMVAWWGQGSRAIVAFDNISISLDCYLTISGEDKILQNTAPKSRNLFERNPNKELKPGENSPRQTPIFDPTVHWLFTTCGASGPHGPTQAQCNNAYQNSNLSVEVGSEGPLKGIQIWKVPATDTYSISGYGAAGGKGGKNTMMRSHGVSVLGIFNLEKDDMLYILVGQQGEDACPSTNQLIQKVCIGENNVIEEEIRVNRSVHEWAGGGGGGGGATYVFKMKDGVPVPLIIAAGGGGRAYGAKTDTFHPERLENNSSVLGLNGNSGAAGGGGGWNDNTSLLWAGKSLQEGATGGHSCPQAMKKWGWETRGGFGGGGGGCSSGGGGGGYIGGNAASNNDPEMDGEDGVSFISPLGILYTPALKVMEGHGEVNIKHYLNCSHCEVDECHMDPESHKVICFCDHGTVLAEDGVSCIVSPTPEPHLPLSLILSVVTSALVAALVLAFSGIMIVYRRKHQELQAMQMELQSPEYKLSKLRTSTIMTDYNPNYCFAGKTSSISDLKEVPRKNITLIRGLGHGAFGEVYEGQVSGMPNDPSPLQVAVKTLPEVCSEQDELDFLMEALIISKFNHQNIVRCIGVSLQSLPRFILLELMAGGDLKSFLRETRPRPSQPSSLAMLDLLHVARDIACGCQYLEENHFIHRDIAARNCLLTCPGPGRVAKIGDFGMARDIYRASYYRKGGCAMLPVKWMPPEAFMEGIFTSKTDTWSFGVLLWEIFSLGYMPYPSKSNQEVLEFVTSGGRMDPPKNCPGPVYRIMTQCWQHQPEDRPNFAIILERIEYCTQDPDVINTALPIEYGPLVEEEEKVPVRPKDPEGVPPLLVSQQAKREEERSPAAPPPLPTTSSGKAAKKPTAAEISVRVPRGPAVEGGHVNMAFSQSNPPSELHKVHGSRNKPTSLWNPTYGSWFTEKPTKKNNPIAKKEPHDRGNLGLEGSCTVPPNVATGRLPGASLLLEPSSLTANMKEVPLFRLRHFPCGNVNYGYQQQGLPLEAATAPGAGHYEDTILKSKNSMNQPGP
Molecule,IC50 (ALK; ALK Kinase Inhibition) [nM],IC50 (JAK2; JAK2 Kinase Inhibition) [nM],IC50 (ALK; [1]) [nM],IC50 (JAK2; [2]) [nM]
"CCc1cc(-c2ccccc2OC)n2nc(Nc3ccc(N4CCN(C)CC4)cc3)ncc12 [Example 106, [5-Ethyl-7-(2-methoxy-phenyl)-pyrrolo[2,1-f][1,2,4]triazin-2-yl]-[4-(4-methyl-piperazin-1-yl)-phenyl]-amine]",100 to 1000,< 100,,
"COc1cc(Cn2ccnc2C)ccc1Nc1ncc2ccc(-c3ccccc3OC)n2n1 [Example 506, [2-Methoxy-4-(2-methyl-imidazol-1-ylmethyl)-phenyl]-[7-(2-methoxy-phenyl)-pyrrolo[2,1-f][1,2,4]triazin-2-yl]-amine]",,,< 100,100 to 1000
"N-{2-[2-(4-{4-[1-(2-Hydroxy-ethyl)-piperidin-4-yl]-[1,4]diazepan-1-yl}-2-methoxy-phenylamino)-pyrrolo[2,1-f][1,2,4]triazin-7-yl]-phenyl}-N-methyl-methanesulfonamide [Example 802]",,,< 100,1000 to 10000
"CN1CCN(CCOc2ccc(Nc3ncc4ccc(-c5cccnc5)n4n3)cc2)CC1 [Example 119, {4-[2-(4-Methyl-piperazin-1-yl)-ethoxy]-phenyl}-(7-pyridin-3-yl-pyrrolo[2,1-f][1,2,4]triazin-2-yl)-amine]",100 to 1000,< 100,,
"c1cncc(-c2ccc3cnc(-n4cnc5cnccc54)nn23)c1 [Example 325, 1-(7-Pyridin-3-yl-pyrrolo[2,1-f][1,2,4]triazin-2-yl)-1H-imidazo[4,5-c]pyridine]",1000 to 10000,1000 to 10000,,
"COc1ccc(CN2CCN(C)CC2)cc1Nc1ncc2ccc(-c3ccccc3OC)n2n1 [Example 495, [2-Methoxy-5-(4-methyl-piperazin-1-ylmethyl)-phenyl]-[7-(2-methoxy-phenyl)-pyrrolo[2,1-f][1,2,4]triazin-2-yl]-amine]",,,1000 to 10000,< 100
"COc1ccc(Cl)cc1-c1ccc2cnc(Nc3ccc(N4CCCC4)cc3)nn12 [Example 168, [7-(5-Chloro-2-methoxy-phenyl)-pyrrolo[2,1-f][1,2,4]triazin-2-yl]-(4-pyrrolidin-1-yl-phenyl)-amine]",1000 to 10000,< 100,,
"CS(=O)(=O)c1ccc(-c2ccc3cnc(Nc4cccc(N5CCOCC5)c4)nn23)cc1F [Example 193, [7-(3-Fluoro-4-methanesulfonyl-phenyl)-pyrrolo[2,1-f][1,2,4]triazin-2-yl]-(3-morpholin-4-yl-phenyl)-amine]",1000 to 10000,< 100,,
"O=S(=O)(NC1CC1)c1cccc(-c2ccc3cnc(Nc4ccc(N5CCOCC5)cc4)nn23)c1 [Example 356, N-Cyclopropyl-3-[2-(4-morpholin-4-yl-phenylamino)-pyrrolo[2,1-f][1,2,4]triazin-7-yl]-benzenesulfonamide]",100 to 1000,< 100,,
"COc1ccc(Cl)cc1-c1ccc2cnc(Nc3ccc4[nH]ccc4c3)nn12 [Example 171, [7-(5-Chloro-2-methoxy-phenyl)-pyrrolo[2,1-f][1,2,4]triazin-2-yl]-(1H-indol-5-yl)-amine]",100 to 1000,< 100,,
"c1cc(N2CCOCC2)ccc1Nc1ncc2ccc(C3CCCCC3)n2n1 [Example 127, (7-Cyclohexyl-pyrrolo[2,1-f][1,2,4]triazin-2-yl)-(4-morpholin-4-yl-phenyl)-amine]",> 10000,< 100,,
"O=C(c1ccc(Nc2ncc3ccc(-c4cccc(Cl)c4)n3n2)cc1)N1CCOCC1 [Example 316, {4-[7-(3-Chloro-phenyl)-pyrrolo[2,1-f][1,2,4]triazin-2-ylamino]-phenyl}-morpholin-4-yl-methanone]",100 to 1000,< 100,,
"COc1cc(N2CCC(N3CCOCC3)CC2)ccc1Nc1ncc2ccc(-c3ccc(Cl)cc3OC)n2n1 [Example 486, [7-(4-Chloro-2-methoxy-phenyl)-pyrrolo[2,1-f][1,2,4]triazin-2-yl]-[2-methoxy-4-(4-morpholin-4-yl-piperidin-1-yl)-phenyl]-amine]",,,< 100,< 100
"COc1ccccc1NCc1ccc2cnc(Nc3ccc(N4CCOCC4)cc3)nn12 [Example 364, {7-[(2-Methoxy-phenylamino)-methyl]-pyrrolo[2,1-f][1,2,4]triazin-2-yl}-(4-morpholin-4-yl-phenyl)-amine]",> 10000,< 100,,
"CN1C(=O)Cc2cc(Nc3ncc4ccc(-c5ccccc5N(C)S(C)(=O)=O)n4n3)ccc21 [Example 375, N-Methyl-N-{2-[2-(1-methyl-2-oxo-2,3-dihydro-1H-indol-5-ylamino)-pyrrolo[2,1-f][1,2,4]triazin-7-yl]-phenyl}-methanesulfonamide]",100 to 1000,< 100,,

# The remaining lines, values ahead:
IC50 (ALK; ALK Kinase Inhibition) [nM],IC50 (JAK2; JAK2 Kinase Inhibition) [nM],IC50 (ALK; [1]) [nM],IC50 (JAK2; [2]) [nM],Molecule
,,< 100,100 to 1000,"COc1cc(C2CCN(CC(N)=O)CC2)ccc1Nc1ncc2ccc(-c3ccc(C)cc3N(C)S(C)(=O)=O)n2n1 [Example 1280, 2-[4-(4-{7-[2-(Methanesulfonyl-methyl-amino)-4-methyl-phenyl]-pyrrolo[2,1-f][1,2,4]triazin-2-ylamino}-3-methoxy-phenyl)-piperidin-1-yl]-acetamide]"
,,< 100,1000 to 10000,"COc1cc(C2CCN(C3COC3)CC2)ccc1Nc1ncc2ccc(-c3ccccc3N(C)S(C)(=O)=O)n2n1 [Example 828, N-(2-{2-[2-Methoxy-4-(1-oxetan-3-yl-piperidin-4-yl)-phenylamino]-pyrrolo[2,1-f][1,2,4]triazin-7-yl}-phenyl)-N-methyl-methanesulfonamide]"
,,1000 to 10000,< 100,"CC(=O)Nc1cccc(Nc2ncc3ccc(-c4cccc(C(=O)NC(C)(C)C)c4)n3n2)c1 [Example 886, 3-[2-(3-Acetylamino-phenylamino)-pyrrolo[2,1-f][1,2,4]triazin-7-yl]-N-tert-butyl-benzamide]"
,,< 100,1000 to 10000,"COc1cc(C2CCN(C(=O)CN(C)C)CC2)ccc1Nc1ncc2ccc(-c3ccccc3N(C)S(C)(=O)=O)n2n1 [Example 813, N-[2-(2-{4-[1-(2-Dimethylamino-acetyl)-piperidin-4-yl]-2-methoxy-phenylamino}-pyrrolo[2,1-f][1,2,4]triazin-7-yl)-phenyl]-N-methyl-methanesulfonamide]"
,,< 100,100 to 1000,"COc1ccccc1-c1ccc2cnc(Nc3ccc4c(c3OC)CN(C3CCN(C)CC3)C4)nn12 [Example 853, [4-Methoxy-2-(1-methyl-piperidin-4-yl)-2,3-dihydro-1H-isoindol-5-yl]-[7-(2-methoxy-phenyl)-pyrrolo[2,1-f][1,2,4]triazin-2-yl]-amine]"
,,< 100,100 to 1000,"COc1cc(C2CCN(CC(C)(C)O)CC2)ccc1Nc1ncc2ccc(-c3ccccc3OC)n2n1 [Example 865, 1-(4-{3-Methoxy-4-[7-(2-methoxy-phenyl)-pyrrolo[2,1-f][1,2,4]triazin-2-ylamino]-phenyl}-piperidin-1-yl)-2-methyl-propan-2-ol]"
1000 to 10000,< 100,,,"NC(=O)CN1CCC(c2ccc(Nc3ncc4ccc(-c5cnccn5)n4n3)cc2)CC1 [Example 1564, 2-{4-[4-(7-Pyrazin-2-yl-pyrrolo[2,1-f][1,2,4]triazin-2-ylamino)-phenyl]-piperidin-1-yl}-acetamide]"
,,1000 to 10000,< 100,"CN(c1ccccc1-c1ccc2cnc(-n3ccnc3)nn12)S(C)(=O)=O [Example 622, N-[2-(2-Imidazol-1-yl-pyrrolo[2,1-f][1,2,4]triazin-7-yl)-phenyl]-N-methyl-methanesulfonamide]"
,,> 10000,< 100,"COc1ccc(-c2ccc3cnc(Nc4cccc(C5C(=O)N(C)CCN5C)c4)nn23)cn1 (stereo not shown) [Example 1081, 3-{3-[7-(6-Methoxy-pyridin-3-yl)-pyrrolo[2,1-f][1,2,4]triazin-2-ylamino]-phenyl}-1,4-dimethyl-piperazin-2-one]"
,,100 to 1000,< 100,"Cc1ccncc1-c1ccc2cnc(Nc3ccc(N4CCN(C)CC4)cc3)nn12 [Example 1039, [4-(4-Methyl-piperazin-1-yl)-phenyl]-[7-(4-methyl-pyridin-3-yl)-pyrrolo[2,1-f][1,2,4]triazin-2-yl]-amine]"
,,< 100,100 to 1000,"COc1cc(N2CCCN(C)CC2)ccc1Nc1ncc2ccc(-c3ccccc3N(C)S(C)(=O)=O)n2n1 [Example 771, N-(2-{2-[2-Methoxy-4-(4-methyl-[1,4]diazepan-1-yl)-phenylamino]-pyrrolo[2,1-f][1,2,4]triazin-7-yl}-phenyl)-N-methyl-methanesulfonamide]"
,,< 100,100 to 1000,"COc1cc(C2CCN(CCO)CC2)ccc1Nc1ncc2ccc(-c3cccc(S(=O)(=O)NC(C)(C)C)c3)n2n1 [Example 694, N-tert-Butyl-3-(2-{4-[1-(2-hydroxy-ethyl)-piperidin-4-yl]-2-methoxy-phenylamino}-pyrrolo[2,1-f][1,2,4]triazin-7-yl)-benzenesulfonamide]"
100 to 1000,< 100,,,"FC1(F)Oc2cccc(-c3ccc4cnc(Nc5ccc6[nH]c(CN7CCOCC7)nc6c5)nn34)c2O1 [Example 1536, [7-(2,2-Difluoro-benzo[1,3]dioxol-4-yl)-pyrrolo[2,1-f][1,2,4]triazin-2-yl]-(2-morpholin-4-ylmethyl-1H-benzoimidazol-5-yl)-amine]"
,,1000 to 10000,< 100,"CC(=O)N1CCc2ccc(Nc3ncc4ccc(-c5cccc(S(=O)(=O)N6CC[C@H](O)C6)c5)n4n3)cc21 [Example 885, 1-(6-{7-[3-((S)-3-Hydroxy-pyrrolidine-1-sulfonyl)-phenyl]-pyrrolo[2,1-f][1,2,4]triazin-2-ylamino}-2,3-dihydro-indol-1-yl)-ethanone]"
